In patent US10034939B2, “Synergistic combination of immunologic inhibitors for the treatment of cancer” (The University of Chicago, priority 2012, dated 2018):
Like-named read-outs stand apart in the source and are kept apart here.

How the values were obtained:
[1] = biological target: Human indoleamine 2,3-dioxygenasae (IDO) (Homo sapiens (Human), UniProt P14902); assay: Human indoleamine 2,3-dioxygenasae (IDO) enzyme assay; type: biochemical
Description: Human indoleamine 2,3-dioxygenasae (IDO) enzyme assay: Human indoleamine 2,3-dioxygenasae (IDO) with an N-terminal His tag was expressed in E. coli and purified to homogeneity. IDO catalyzes the oxidative cleavage of the pyrrole ring of the indole nucleus of tryptophan to yield N′-formylkynurenine.
IC50 data are from the IDO enzyme assay described above.

[2] = system: CD3^+ cells in the peripheral blood; conditions: previous studies; cited from earlier work
[3] = system: CD3^+ cells in the peripheral blood; assay: Depletion of circulating T cells by FTY720 in tumor-bearing mice; type: in vivo; conditions: 25 μg FTY-720 oral gavage on day 4, relative to vehicle-treated mice
Experimental: Prior to the initiation of the therapy regimens (2.5 h pre-treatment), fingolimod (FTY-720, Enzo Life Sciences) was given to mice to inhibit lymphocyte migration out of lymphoid organs. FTY-720 stock solution (10 mg/ml in DMSO) was diluted to a 125 μg/ml concentration in PBS directly before administration. Mice received a dose of 25 μg FTY-720 or PBS containing DMSO as control via oral gavage. Therapy was initiated the same day (2.5 h delayed) and mice were analyzed on day 7 to perform the ex vivo functional assay as described above.
To determine whether the presence of CD8^+ T cells showing high levels of IL-2 production and proliferation within the tumor microenvironment following effective immunotherapy doublets was a result of new T cell migration into the tumor site or reactivation of T cells already present, FTY720 treatment was utilized to block the sphingosine 1-phosphate receptor-1 and thereby prohibit T cells from exiting lymphoid organs. Previous studies have shown that the effect can be detected as soon as 2 h after initial administration and is stable for up to 4 days. FTY720 was administered or control vehicle to tumor-bearing mice on day 4, 2.5 h prior to the initiation of immunotherapies. […] Overall, a 90% reduction in circulating CD3^+ T cells in FTY720-treated mice was detected (FIG. 13A). […]

B16-SIY cells = assay: Tumor growth inhibition (TGI), unaffected fraction synergy analysis of combination therapies; type: in vivo, mice
Experimental: Treatment was initiated on day 4 post tumor inoculation with the following regimens for each drug. αCTLA-4 antibody (clone UC10-4F10-11, Bio-X-Cell) was given i.p. on day 4, 7 and 10 at a dose of 100 μg/mouse. αPD-L1 antibody (clone 10F.9G2, Bio-X-Cell) was given i.p. (100 μg/mouse) every other day starting on day 4 ending on day 16 post tumor inoculation. IDOi (INCB23843, Incyte Corporation) was dissolved in 0.5% methylcellulose and administered at 300 mg/kg po QD on a 5 days on/2 days off schedule starting on day 4. In the case of functional experiments with an earlier endpoint, treatment regimens were carried out as described until the day of T cell analysis. A comparison between IDOi and IDOc (INCB24360, Incyte Corporation) was perfomed according to the treatment regime described above. Tumor outgrowth was followed starting day 7 onwards and is depicted in combination with anti-CTLA4 (FIG. 18A) or anti-PD-L1 (FIG. 18B). N=5 mice per group, and a two-way Anova test was used to determine significance between the groups.
Treatment was administered in the same fashion as described for FIG. 9, with the exception that IDOi (INCB23843) was replaced by IDOc (INCB24360) in the indicated groups. […] Synergy analysis was performed with day 15 data and with day 23 data. Actual tumor growth inhibition (TGI) is the experimental TGI seen in this experiment for the combinations, and predicted TGI is the TGI that would have been expected for a purely additive combination effect from the performance of the individual agents in this experiment. Actual TGIs higher than predicted TGIs reflect better than additive (synergistic) data.

Sequence of Human indoleamine 2,3-dioxygenasae (IDO) (P14902 whole entry): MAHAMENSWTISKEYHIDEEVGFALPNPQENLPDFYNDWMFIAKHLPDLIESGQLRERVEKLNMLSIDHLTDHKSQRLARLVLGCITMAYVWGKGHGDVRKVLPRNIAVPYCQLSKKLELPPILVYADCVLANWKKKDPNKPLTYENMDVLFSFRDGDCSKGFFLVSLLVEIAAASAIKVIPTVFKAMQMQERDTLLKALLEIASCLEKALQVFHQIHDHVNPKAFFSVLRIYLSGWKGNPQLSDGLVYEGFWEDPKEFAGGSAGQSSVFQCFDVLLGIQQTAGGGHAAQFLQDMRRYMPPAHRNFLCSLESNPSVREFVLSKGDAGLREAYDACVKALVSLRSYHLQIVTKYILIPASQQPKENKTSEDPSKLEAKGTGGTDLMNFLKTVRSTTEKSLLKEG

Structure (SMILES) | IC50 ([1]; read-out: IDO IC50) [nM] | other results
NS(=O)(=O)NCCCNc1nonc1C(=NO)Nc1ccc(F)c(Br)c1 [Example 3, 4-({3-[(Aminosulfonyl)amino]propyl}amino)-N-(3-bromo-4-fluorophenyl)-N′-hydroxy-1,2,5-oxadiazole-3-carboximidamide] | < 100 | 
CS(=O)(=O)NCCCNc1nonc1C(=NO)Nc1ccc(F)c(Br)c1 [Example 4, N-(3-Bromo-4-fluorophenyl)-N′-hydroxy-4-({3-[(methylsulfonyl)amino]propyl}amino)-1,2,5-oxadiazole-3-carboximidamide] | < 100 | 
NS(=O)(=O)NCCNc1nonc1C(=NO)Nc1ccc(F)c(Cl)c1 [Example 5, 4-({2-[(Aminosulfonyl)amino]ethyl}amino)-N-(3-chloro-4-fluorophenyl)-N′-hydroxy-1,2,5-oxadiazole-3-carboximidamide] | < 200 | 
CS(=O)(=O)NCCNc1nonc1C(=NO)Nc1ccc(F)c(Cl)c1 [Example 6, N-(3-Chloro-4-fluorophenyl)-N′-hydroxy-4-({2-[(methylsulfonyl)amino]ethyl}amino)-1,2,5-oxadiazole-3-carboximidamide] | < 200 | 
NS(=O)(=O)NCCCNc1nonc1C(=NO)Nc1ccc(F)c(Cl)c1 [Example 7, 4-({3-[(Aminosulfonyl)amino]propyl}amino)-N-(3-chloro-4-fluorophenyl)-N′-hydroxy-1,2,5-oxadiazole-3-carboximidamide] | < 200 | 
CS(=O)(=O)NCCCNc1nonc1C(=NO)Nc1ccc(F)c(Cl)c1 [Example 8, N-(3-Chloro-4-fluorophenyl)-N′-hydroxy-4-({3-[(methylsulfonyl)amino]propyl}amino)-1,2,5-oxadiazole-3-carboximidamide] | < 200 | 
NS(=O)(=O)NCCNc1nonc1C(=NO)Nc1ccc(F)c(C(F)(F)F)c1 [Example 9, 4-({2-[(Aminosulfonyl)amino]ethyl}amino)-N-[4-fluoro-3-(trifluoromethyl)phenyl]-N′-hydroxy-1,2,5-oxadiazole-3-carboximidamide] | < 100 | 
CS(=O)(=O)NCCNc1nonc1C(=NO)Nc1ccc(F)c(C(F)(F)F)c1 [Example 10, N-[4-Fluoro-3-(trifluoromethyl)phenyl]-N′-hydroxy-4-({2-[(methylsulfonyl)amino]ethyl}amino)-1,2,5-oxadiazole-3-carboximidamide] | < 100 | 
NS(=O)(=O)NCCCNc1nonc1C(=NO)Nc1ccc(F)c(C(F)(F)F)c1 [Example 11, 4-({3-[(Aminosulfonyl)amino]propyl}amino)-N-[4-fluoro-3-(trifluoromethyl)phenyl]-N′-hydroxy-1,2,5-oxadiazole-3-carboximidamide] | < 100 | 
CS(=O)(=O)NCCCNc1nonc1C(=NO)Nc1ccc(F)c(C(F)(F)F)c1 [Example 12, N-[4-Fluoro-3-(trifluoromethyl)phenyl]-N′-hydroxy-4-({3-[(methylsulfonyl)amino]propyl}amino)-1,2,5-oxadiazole-3-carboximidamide] | < 100 | 
NS(=O)(=O)NCCNc1nonc1C(=NO)Nc1cccc(C(F)(F)F)c1 [Example 13, 4-({2-[(Aminosulfonyl)amino]ethyl}amino)-N′-hydroxy-N-[3-(trifluoromethyl)phenyl]-1,2,5-oxadiazole-3-carboximidamide] | < 500 | 
CS(=O)(=O)NCCNc1nonc1C(=NO)Nc1cccc(C(F)(F)F)c1 [Example 14, N′-Hydroxy-4-({2-[(methylsulfonyl)amino]ethyl}amino)-N-[3-(trifluoromethyl)phenyl]-1,2,5-oxadiazole-3-carboximidamide] | < 200 | 
NS(=O)(=O)NCCCNc1nonc1C(=NO)Nc1cccc(C(F)(F)F)c1 [Example 15, 4-({3-[(Aminosulfonyl)amino]propyl}amino)-N′-hydroxy-N-[3-(trifluoromethyl)phenyl]-1,2,5-oxadiazole-3-carboximidamide] | < 200 | 
CS(=O)(=O)NCCCNc1nonc1C(=NO)Nc1cccc(C(F)(F)F)c1 [Example 16, N′-Hydroxy-4-({3-[(methylsulfonyl)amino]propyl}amino)-N-[3-(trifluoromethyl)phenyl]-1,2,5-oxadiazole-3-carboximidamide] | < 200 | 
Cc1cc(NC(=NO)c2nonc2NCCNS(C)(=O)=O)ccc1F [Example 17, N-(4-Fluoro-3-methylphenyl)-N′-hydroxy-4-({2-[(methylsulfonyl)amino]ethyl}amino)-1,2,5-oxadiazole-3-carboximidamide] | < 500 | 
N#Cc1cc(NC(=NO)c2nonc2NCCNS(N)(=O)=O)ccc1F [Example 18, 4-({2-[(Aminosulfonyl)amino]ethyl}amino)-N-(3-cyano-4-fluorophenyl)-N′-hydroxy-1,2,5-oxadiazole-3-carboximidamide] | < 750 | 
CS(=O)(=O)NCCNc1nonc1C(=NO)Nc1ccc(F)c(C#N)c1 [Example 19, N-(3-Cyano-4-fluorophenyl)-N′-hydroxy-4-({2-[(methylsulfonyl)amino]ethyl}amino)-1,2,5-oxadiazole-3-carboximidamide] | < 500 | 
NS(=O)(=O)NCCNc1nonc1C(=NO)NCc1cc(Br)co1 [Example 20, 4-({2-[(Aminosulfonyl)amino]ethyl}amino)-N-[(4-bromo-2-furyl)methyl]-N′-hydroxy-1,2,5-oxadiazole-3-carboximidamide] | < 500 | 
NS(=O)(=O)NCCNc1nonc1C(=NO)NCc1cc(Cl)co1 [Example 21, 4-({2-[(Aminosulfonyl)amino]ethyl}amino)-N-[(4-chloro-2-furyl)methyl]-N′-hydroxy-1,2,5-oxadiazole-3-carboximidamide] | < 750 | 
CN(CCNc1nonc1/C(=N/O)Nc1ccc(F)c(Cl)c1)S(N)(=O)=O [Example 24, 4-(2-[(Aminosulfonyl)(methyl)amino]ethylamino)-N-(3-chloro-4-fluorophenyl)-N′-hydroxy-1,2,5-oxadiazole-3-carboximidamide] | < 200 | IC50 ([1]; average of five lots, read-out: IC50): 132 nM
CCCCCCCCc1ccc(CCC(N)(CO)CO)cc1 [FTY720, fingolimod] |  | time after initial administration at which the effect can be detected [2]: 2 h; time for which the effect is stable [2]: up to 4 days; reduction in circulating CD3^+ T cells [3]: 90%
NS(=O)(=O)NCCNc1nonc1/C(=N/O)Nc1ccc(F)c(Br)c1 [IDOc] |  | Actual TGI (B16-SIY cells; Day 15 (end of dosing), combination with anti CTLA4): 74%; Actual TGI (B16-SIY cells; Day 15 (end of dosing), combination with antiPDL1): 81%; Predicted TGI (B16-SIY cells; Day 15, combination with anti CTLA4, expected for a purely additive effect from the individual agents): 66%; Predicted TGI (B16-SIY cells; Day 15, combination with antiPDL1, expected for a purely additive effect): 24%; Actual TGI (B16-SIY cells; Day 23 (last day of vehicles), combination with anti CTLA4): 93%; Actual TGI (B16-SIY cells; Day 23 (last day of vehicles), combination with antiPDL1): 82%; Predicted TGI (B16-SIY cells; Day 23, combination with anti CTLA4, expected for a purely additive effect): 65%; Predicted TGI (B16-SIY cells; Day 23, combination with antiPDL1, expected for a purely additive effect): 35%
